Reference: patent US9040545B2, “Heterocyclyl pyrazolopyrimidine analogues as selective JAK inhibitors” (Cellzome Limited, priority 2010, dated 2015)

Target: T1, JAK3 (Homo sapiens, UniProt P52333)
T1 construct: endogenous in cells; host or cells: mixed Molt4/Ramos lysate (1:2)
T1 sequence (P52333 1-1124): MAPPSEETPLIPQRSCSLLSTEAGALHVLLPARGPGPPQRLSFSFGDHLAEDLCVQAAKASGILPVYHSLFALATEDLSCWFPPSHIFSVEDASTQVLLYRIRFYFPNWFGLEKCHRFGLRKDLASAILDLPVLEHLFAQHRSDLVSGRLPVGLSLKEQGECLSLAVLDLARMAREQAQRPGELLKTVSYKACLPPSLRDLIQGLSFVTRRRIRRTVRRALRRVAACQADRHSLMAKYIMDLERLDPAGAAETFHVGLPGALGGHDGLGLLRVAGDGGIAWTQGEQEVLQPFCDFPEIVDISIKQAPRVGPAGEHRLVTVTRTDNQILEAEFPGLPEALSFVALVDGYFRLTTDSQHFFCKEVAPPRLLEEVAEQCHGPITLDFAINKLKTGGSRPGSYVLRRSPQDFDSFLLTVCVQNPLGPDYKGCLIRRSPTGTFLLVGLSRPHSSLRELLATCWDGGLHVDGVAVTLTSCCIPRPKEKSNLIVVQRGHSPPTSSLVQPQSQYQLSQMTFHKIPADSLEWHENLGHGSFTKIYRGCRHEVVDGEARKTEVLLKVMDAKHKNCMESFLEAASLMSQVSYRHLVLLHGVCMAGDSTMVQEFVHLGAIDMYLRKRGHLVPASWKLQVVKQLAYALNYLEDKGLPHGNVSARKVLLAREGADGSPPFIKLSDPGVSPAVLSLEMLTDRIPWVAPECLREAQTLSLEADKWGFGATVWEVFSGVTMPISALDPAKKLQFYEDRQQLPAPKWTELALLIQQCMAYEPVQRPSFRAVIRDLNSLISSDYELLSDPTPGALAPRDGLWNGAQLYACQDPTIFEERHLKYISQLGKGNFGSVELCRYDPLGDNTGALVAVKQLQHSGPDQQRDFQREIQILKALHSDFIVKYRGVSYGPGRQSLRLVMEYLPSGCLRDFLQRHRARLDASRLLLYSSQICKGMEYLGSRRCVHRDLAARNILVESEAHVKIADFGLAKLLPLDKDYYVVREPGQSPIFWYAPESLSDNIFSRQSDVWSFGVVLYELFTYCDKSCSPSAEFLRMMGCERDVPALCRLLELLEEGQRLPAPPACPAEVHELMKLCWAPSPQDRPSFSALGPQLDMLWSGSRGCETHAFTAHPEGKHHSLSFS
Test: Kinobeads assay, JAK3
Type: binding
Settings: mixed Molt4/Ramos lysate, read-out: Inhibition values (IC50) JAK3
Method: The compounds of the present invention as described in the previous examples were tested in a Kinobeads™ assay as described for ZAP-70 (WO-A 2007/137867). Briefly, test compounds (at various concentrations) and the affinity matrix with the immobilized aminopyrido-pyrimidine ligand 24 were added to cell lysate aliquots and allowed to bind to the proteins in the lysate sample. After the incubation time the beads with captured proteins were separated from the lysate. Bound proteins were then eluted and the presence of JAK2 and JAK3 was detected and quantified using specific antibodies in a dot blot procedure and the Odyssey infrared detection system. Dose response curves for individual kinases were generated and IC50 values calculated. Kinobeads™ assays for ZAP-70 (WO-A 2007/137867) and for kinase selectivity profiling (WO-A 2006/134056) have been previously described.
The affinity matrix was washed two times with 15 mL of 1×DP buffer containing 0.2% NP40 (IGEPAL® CA-630, Sigma, #I3021) and then resuspended in 1×DP buffer containing 0.2% NP40 (3% beads slurry).
5×DP buffer 250 mM Tris-HCl pH 7.4, 25% Glycerol, 7.5 mM MgCl2, 750 mM NaCl, 5 mM Na3VO4; filter the 5×DP buffer through a 0.22 μm filter and store in aliquots at −80° C. The 5×DP buffer is diluted with H2O to 1×DP buffer containing 1 mM DTT and 25 mM NaF.
Stock solutions of test compounds were prepared in DMSO. In a 96 well plate 30 μL solution of diluted test compounds at 5 mM in DMSO were prepared. Starting with this solution a 1:3 dilution series (9 steps) was prepared. For control experiments (no test compound) a buffer containing 2% DMSO was used.
Molt4 cells (ATCC catalogue number CRL-1582) and Ramos cells (ATCC catalogue number CRL-1596) were grown in 1 L Spinner flasks (Integra Biosciences, #182101) in suspension in RPMI 1640 medium (Invitrogen, #21875-034) supplemented with 10% Fetal Bovine Serum (Invitrogen) at a density between 0.15×106 and 1.2×10^6 cells/mL. Cells were harvested by centrifugation, washed once with 1×PBS buffer (Invitrogen, #14190-094) and cell pellets were frozen in liquid nitrogen and subsequently stored at −80° C. Cells were homogenized in a Potter S homogenizer in lysis buffer: 50 mM Tris-HCl, 0.8% NP40, 5% glycerol, 150 mM NaCl, 1.5 mM MgCl2, 25 mM NaF, 1 mM sodium vanadate, 1 mM DTT, pH 7.5. One complete EDTA-free tablet (protease inhibitor cocktail, Roche Diagnostics, 1873580) per 25 mL buffer was added. The material was dounced 10 times using a mechanized POTTER S, transferred to 50 mL falcon tubes, incubated for 30 minutes on ice and spun down for 10 minutes at 20,000 g at 4° C. (10,000 rpm in Sorvall SLA600, precooled). The supernatant was transferred to an ultracentrifuge (UZ)-polycarbonate tube (Beckmann, 355654) and spun for 1 hour at 100,000 g at 4° C. (33.500 rpm in Ti50.2, precooled). The supernatant was transferred again to a fresh 50 mL falcon tube, the protein concentration was determined by a Bradford assay (BioRad) and samples containing 50 mg of protein per aliquot were prepared. The samples were immediately used for experiments or frozen in liquid nitrogen and stored frozen at −80° C.
Cell lysate (approximately 50 mg protein per plate) was thawed in a water bath at room temperature and then stored on ice. To the thawed cell lysate 1×DP 0.8% NP40 buffer containing protease inhibitors (1 tablet for 25 mL buffer; EDTA-free protease inhibitor cocktail; Roche Diagnostics 1873580) was added in order to reach a final protein concentration of 10 mg/mL total protein. The diluted cell lysate was stored on ice. Mixed Molt4/Ramos lysate was prepared by combining one volume of Molt4 lysate and two volumes of Ramos lysate (ratio 1:2).
To a 96 well filter plate (Multiscreen HTS, BV Filter Plates, Millipore #MSBVN1250) were added per well: 100 μL affinity matrix (3% beads slurry), 3 μL of compound solution, and 50 μL of diluted lysate. […]

Row | IC50 [nM] | SMILES
1 | < 100 | C[C@@H]1COCCN1c1cccc(Cn2ncc3cnc(Nc4cnn(C)c4)nc32)n1 [Example 1, (R)—N-(1-Methyl-1H-pyrazol-4-yl)-1-((6-(3-methylmorpholino)pyridin-2-yl)methyl)-1H-pyrazolo[3,4-d]pyrimidin-6-amine]
2 | < 100 | Cn1cc(Nc2ncc3cnn(Cc4cccc(N5CCOCC5)c4)c3n2)cn1 [Example 2, N-(1-Methyl-1H-pyrazol-4-yl)-1-(3-morpholinobenzyl)-1H-pyrazolo[3,4-d]pyrimidin-6-amine]
3 | < 100 | Cn1cc(Nc2ncc3cnn(Cc4cccc(N5CCOCC5)n4)c3n2)cn1 [Example 3, N-(1-Methyl-1H-pyrazol-4-yl)-1-((6-morpholinopyridin-2-yl)methyl)-1H-pyrazolo[3,4-d]pyrimidin-6-amine]
4 | < 100 | CN(C)CCCn1cc(Nc2ncc3cnn(Cc4cccc(N5CCOCC5)c4)c3n2)cn1 [Example 4, N-(1-(3-(Dimethylamino)propyl)-1H-pyrazol-4-yl)-1-(3-morpholinobenzyl)-1H-pyrazolo[3,4-d]pyrimidin-6-amine]
5 | < 100 | OCCn1cc(Nc2ncc3cnn(Cc4cccc(N5CCOCC5)c4)c3n2)cn1 [Example 5, 2-(4-((1-(3-Morpholinobenzyl)-1H-pyrazolo[3,4-d]pyrimidin-6-yl)amino)-1H-pyrazol-1-yl)ethanol]
6 | < 100 | Cn1cc(Nc2ncc3cnn(Cc4cccc(C(=O)N5CCOCC5)c4)c3n2)cn1 [Example 6, (3-((6-((1-Methyl-1H-pyrazol-4-yl)amino)-1H-pyrazolo[3,4-d]pyrimidin-1-yl)methyl)phenyl)(morpholino)methanone]
7 | < 100 | Cn1cc(Nc2ncc3cnn(Cc4cccc(CN5CCOCC5)c4)c3n2)cn1 [Example 7, N-(1-Methyl-1H-pyrazol-4-yl)-1-(3-(morpholinomethyl)benzyl)-1H-pyrazolo[3,4-d]pyrimidin-6-amine]
8 | 100 to 1000 | Cn1cc(Nc2ncc3cnn(Cc4cccc(N5CCCCC5)c4)c3n2)cn1 [Example 8, N-(1-Methyl-1H-pyrazol-4-yl)-1-(3-(piperidin-1-yl)benzyl)-1H-pyrazolo[3,4-d]pyrimidin-6-amine]
9 | < 100 | Cn1cc(Nc2ncc3cnn(Cc4cccc(C5CCOCC5)c4)c3n2)cn1 [Example 9, N-(1-Methyl-1H-pyrazol-4-yl)-1-(3-(tetrahydro-2H-pyran-4-yl)benzyl)-1H-pyrazolo[3,4-d]pyrimidin-6-amine]
10 | < 100 | CN1CCN(c2cccc(Cn3ncc4cnc(Nc5cnn(C)c5)nc43)c2)CC1 [Example 10, N-(1-Methyl-1H-pyrazol-4-yl)-1-(3-(4-methylpiperazin-1-yl)benzyl)-1H-pyrazolo[3,4-d]pyrimidin-6-amine]
11 | < 100 | Cc1c(Cn2ncc3cnc(Nc4cnn(C)c4)nc32)cccc1N1CCOCC1 [Example 11, N-(1-Methyl-1H-pyrazol-4-yl)-1-(2-methyl-3-morpholinobenzyl)-1H-pyrazolo[3,4-d]pyrimidin-6-amine]
12 | < 100 | CNC(=O)Cn1cc(Nc2ncc3cnn(Cc4cccc(N5CCOCC5)c4)c3n2)cn1 [Example 12, N-Methyl-2-(4-((1-(3-morpholinobenzyl)-1H-pyrazolo[3,4-d]pyrimidin-6-yl)amino)-1H-pyrazol-1-yl)acetamide]
13 | 100 to 1000 | CCOC(=O)C1CCCN(c2cccc(Cn3ncc4cnc(Nc5cnn(C)c5)nc43)c2)C1 (stereo not drawn) [Example 13, Ethyl 1-(3-((6-((1-methyl-1H-pyrazol-4-yl)amino)-1H-pyrazolo[3,4-d]pyrimidin-1-yl)methyl)phenyl)piperidine-3-carboxylate]
14 | < 100 | NC(=O)CCn1cc(Nc2ncc3cnn(Cc4cccc(N5CCOCC5)c4)c3n2)cn1 [Example 14, 3-(4-((1-(3-Morpholinobenzyl)-1H-pyrazolo[3,4-d]pyrimidin-6-yl)amino)-1H-pyrazol-1-yl)propanamide]
15 | 100 to 1000 | Cn1cc(Nc2ncc3cnn(Cc4cc(N5CCOCC5)ccc4F)c3n2)cn1 [Example 15, 1-(2-Fluoro-5-morpholinobenzyl)-N-(1-methyl-1H-pyrazol-4-yl)-1H-pyrazolo[3,4-d]pyrimidin-6-amine]
16 | < 100 | CN(C)C(=O)CCn1cc(Nc2ncc3cnn(Cc4cccc(N5CCOCC5)c4)c3n2)cn1 [Example 16, N,N-Dimethyl-3-(4-((1-(3-morpholinobenzyl)-1H-pyrazolo[3,4-d]pyrimidin-6-yl)amino)-1H-pyrazol-1-yl)propanamide]
17 | < 100 | Cn1cc(Nc2ncc3cnn(Cc4c(F)c(F)cc(N5CCOCC5)c4F)c3n2)cn1 [Example 17, N-(1-Methyl-1H-pyrazol-4-yl)-1-(2,3,6-trifluoro-5-morpholinobenzyl)-1H-pyrazolo[3,4-d]pyrimidin-6-amine]
18 | < 100 | OCCCn1cc(Nc2ncc3cnn(Cc4cccc(N5CCOCC5)c4)c3n2)cn1 [Example 18, 3-(4-((1-(3-Morpholinobenzyl)-1H-pyrazolo[3,4-d]pyrimidin-6-yl)amino)-1H-pyrazol-1-yl)propan-1-ol]
19 | 100 to 1000 | Cn1cc(Nc2ncc3cnn(Cc4cccc(N5CCC(F)(F)CC5)c4)c3n2)cn1 [Example 19, 1-(3-(4,4-Difluoropiperidin-1-yl)benzyl)-N-(1-methyl-1H-pyrazol-4-yl)-1H-pyrazolo[3,4-d]pyrimidin-6-amine]
20 | < 100 | O=C(CCn1cc(Nc2ncc3cnn(Cc4cccc(N5CCOCC5)c4)c3n2)cn1)N1CCCCC1 [Example 20, 3-(4-((1-(3-Morpholinobenzyl)-1H-pyrazolo[3,4-d]pyrimidin-6-yl)amino)-1H-pyrazol-1-yl)-1-(piperidin-1-yl)propan-1-one]
21 | < 100 | Cn1cc(Nc2ncc3cnn(Cc4cccc(N5CCOCC5)c4F)c3n2)cn1 [Example 21, 1-(2-Fluoro-3-morpholinobenzyl)-N-(1-methyl-1H-pyrazol-4-yl)-1H-pyrazolo[3,4-d]pyrimidin-6-amine]
